Legend:
[1] = Dynamic 60 min PET/CT of healthy mice, whole-brain time activity curve; format: in vivo, mouse
Description: A transmission scan was acquired to correct for attenuation during image reconstruction. Following PET imaging, mice were transferred to a SOFIE GNEXT PET/CT for CT acquisition. PET/CT data were co-registered and analyzed using Inveon Research Workplace software to generate images and quantify radiotracer uptake in regions of interest (ROIs). A 3D ROI was manually defined for the whole brain using CT data as anatomical reference, then applied to the full dynamic data set to generate a time activity curve (TAC).
(§1) The count densities were averaged for all volumes of interest at each time point to obtain a time-activity curve (TAC). The TACs were normalized to injected dose, as measured by a CRC-15 PET dose calibrator (Capintec Inc.), and expressed as % injected dose per gram (% ID/g), assuming 1 g/mL. CT was performed in GNEXT depth of interaction (DOI) dual-layer detector system. Scintica VivoQuant software was used to visualize radiotracer uptake and define the 3D volumes of interest. 3D maximum intensity projection (MIP) PET/CT images were created using IRW software.
On days 15-16 after EAE induction, mice were catheterized and placed on the 4-mouse scanning bed of the Sofie GNEXT PET/CT scanner.

[2] = molecular target: T1, GPR84 (Mus musculus, UniProt Q8CIM5); assay: Dynamic PET/CT in EAE vs naive mice, spinal cord time activity curves; format: in vivo
T1 construct: tissue Jackson Laboratories; host or cells: female C57BL/6J mice (LPS, saline, EAE or naive): brain, spinal cord and peripheral organs
T1 sequence (Q8CIM5 whole entry): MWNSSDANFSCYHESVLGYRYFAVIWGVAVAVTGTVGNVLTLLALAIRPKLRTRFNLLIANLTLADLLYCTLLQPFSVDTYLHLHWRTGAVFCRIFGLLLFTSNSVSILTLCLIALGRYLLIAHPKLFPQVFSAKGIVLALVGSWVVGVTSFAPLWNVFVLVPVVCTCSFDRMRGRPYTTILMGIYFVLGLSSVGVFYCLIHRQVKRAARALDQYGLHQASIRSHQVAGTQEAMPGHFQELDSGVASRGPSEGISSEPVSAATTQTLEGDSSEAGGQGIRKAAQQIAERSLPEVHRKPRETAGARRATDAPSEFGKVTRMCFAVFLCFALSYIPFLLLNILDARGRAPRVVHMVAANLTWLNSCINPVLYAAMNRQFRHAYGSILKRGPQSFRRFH
Experimental: 10-week old female C57BL/6 mice were induced with EAE using kits from Hooke Laboratories Inc. (cat #EK2110; Lawrence, MA). After anesthetizing mice with isoflurane gas (2.0-3.0% for induction and 1.5-2.5% for maintenance), they were inoculated with myelin oligodendrocyte glycoprotein (MOG35-55) in complete Freund's adjuvant (CFA) (0.2 mL per mouse, S.C.), followed by two pertussis toxin (PTX) injections (110 ng per injection, I.P., 1 and 24 h post-MOG injection). All mice were weighed and scored daily in the morning from day 8 onwards according to standard EAE scoring systems: 0, no paralysis; 1, loss of tail tone; 2, hind limb weakness or paresis; 3, hind limb paralysis; 4, complete hind leg and partial front leg paralysis. EAE mice were given supplemental food and fluids as necessary.
On days 15-16 after EAE induction, mice were catheterized and placed on the 4-mouse scanning bed of the Sofie GNEXT PET/CT scanner. Mice were injected with a radiotracer bolus of 130-170 μCi of ^18F-MGX-110S for a 60-min dynamic PET scan followed by CT. Scans were reconstructed from list mode into 19 frames (4×15 s, 4×60 s, 11×300 s) using OSEM3D reconstruction with 3 iterations and 24 subsets. Brain analysis was performed using a semi-automated brain atlas on VivoQuant software (2020 version) and spinal cords were manually drawn as previously described (JoVE).
Radiosynthesis of ^18F-MGX-110S was achieved by copper-mediated fluorination of a Bpin precursor in a mixture of dimethylacetamide at 130° C. for 20 min. C57BL/6 mice were induced with EAE using myelin oligodendrite glycoprotein (MOG35-55) emulsified in complete Freund's adjuvant and weighed/scored daily for disease severity. Expression of Gpr84 and Tspo was assessed in EAE (n=10-16 mice of low and high disease severities) versus naïve mice (n=5) using quantitative polymerase chain reaction (qPCR) of CNS tissues. In vivo kinetics, spatial distribution, and BBB permeability of ^18F-MGX-110S was assessed via 60-min dynamic PET/CT imaging of naïve C57BL/6 (n=3) and high scoring EAE mice (n=3). Ex vivo gamma counting of tissues of interest was conducted using naïve (n=8) and EAE (n=8) mice 60-min post-tracer injection. Lastly, EAE (n=3) and naïve (n=4) mice were injected with ^18F-GE180 and dissected 60 min later for gamma counting as a comparison.

[3] = molecular target: T1, GPR84; assay: Dynamic PET/CT of brain in LPS-induced systemic inflammation vs saline, with or without GLPG1205 block; format: in vivo; conditions: LPS 10 mg/kg, 24 h
Experimental: To determine KD of GLPG38, a competitive binding assay was performed using a membrane preparation from cells expressing GPR84-Gi in addition to [^3H]G9543, a known GPR84 antagonist. [^11C]GLPG38 was then radiosynthesized via [^11C]methylation of desmethyl precursor using [^11C]methyl iodide. […] Dynamic 60 min PET/CT imaging was performed 24 hr following LPS-administration using [^11C]GLPG38. Subsequently, mice were perfused with PBS to remove blood, and radioactive signal was assessed in CNS and peripheral tissues via gamma counting. Ex vivo autoradiography of sagittal mouse brain sections was conducted to obtain high resolution images of [^11C]GLPG38 binding. To investigate alterations in GPR84 mRNA expression, quantitative polymerase-chain reaction was performed using mouse brain tissue and human monocyte-derived macrophage cells stimulated with LPS 24 hr prior to RNA extraction.
as §1
A range of doses (0.65, 0.75, and 0.90 mg/kg) of GLPG1205 were used to investigate whether the blocking was dose-dependent. […] GLPG1205 was injected intra-venously 10 min prior to radiotracer injection (n=4).

[4] = healthy rhesus macaque, n=1
Experimental: The animal was anesthetized in the home cage with Telazol and transported to the PET facility, where the subject was intubated for mechanical ventilation; anesthesia was continued with isoflurane and maintained throughout the duration of the PET scan. A venous catheter was inserted into one hind limb and the monkey was placed on the PET gantry with its head secured to prevent motion artifacts. […] Emission data were collected beginning with the injection and continued for 60 minutes. Vitals (HR, SPO2, EtCO2 and respiratory rate) were collected for the entire duration of the scan. Data were corrected for attenuation and scatter and reconstructed using the three-dimensional-maximum a priori method (3D MAP algorithm). A ROI was defined for the whole brain on multiple planes by using a summed image. The volumetric ROI was then applied to a full dynamic data set to generate a TAC.

| Compound | time of peak brain uptake ([1]; naive mice, n=3) | cervical/thoracic spinal cord signal at 60 min, EAE mice ([2]; high scoring EAE, n=3) | lumbar spinal cord signal at 60 min, EAE mice ([2]; high scoring EAE, n=3, p=0.0206) | cervical/thoracic spinal cord signal at 60 min, naive mice ([2]; n=3) | lumbar spinal cord signal at 60 min, naive mice ([2]; n=3) | brain PET signal in LPS-treated vs saline-treated mice at 40-60 min post injection [3] | whole-brain uptake after washout, end of 60 min scan ([1]; healthy mice) | whole-brain uptake at 4 minutes post injection ([1]; naive wild-type mice) | peak whole-brain uptake at 4 minutes post injection [4] | whole-brain level after washout over 60 min [4] |
| --- | --- | --- | --- | --- | --- | --- | --- | --- | --- | --- |
| O=c1nc(OC[C@@H]2COCCO2)cc2n1CCc1cc([18F])ccc1-2 [^18F-MGX-110S] | 0.25 min | 4.54±1.16 % ID/g | 7.08±1.05 % ID/g | 3.21±0.42 % ID/g | 4.13±0.79 % ID/g |  |  |  |  |  |
| Cc1cc2c(cc1O[11CH3])CCn1c-2c(C)c(OC[C@@H]2COCCO2)cc1=O [[^11C]GLPG38] |  |  |  |  |  | significantly elevated | 3.53 % ID/g | 9.46 % ID/g | 3.3 SUV | 1.47 SUV |

Source: patent US20260091147A1, “METHOD FOR DETECTING INNATE IMMUNE ACTION IN VIVO USING GPR84-PET” (The Board of Trustees of the Leland Standford Junior …, priority 2023, published 2026)
